Tests used:
wild oat = test: Test C postemergence; type: in vivo, Avena fatua; conditions: for Plant response rating (0 to 100), Oat, Wild: postemergence; for Plant response rating, Oat, Wild: Postemergence, scale 0 to 100 (0 no effect, 100 complete control)
How it was run: (§1)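 Greenhouse herbicide screen. Pre: seeded loam/sand, sprayed at planting. Post: 1–4 leaf plants (2–18 cm) in peat-based mix. Formulation: solvent mixture + surfactant, non-phytotoxic. Readout: visual % control vs untreated, 13–15 d; dash = not tested.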

yellow nutsedge [1] = test: Test C preemergence; type: in vivo, Cyperus esculentus; conditions: for Nutsedge, Yellow plant response rating: preemergence, scale 0 (no effect) to 100 (complete control)
How it was run: as §1

galium = test: Test C preemergence; type: in vivo, Galium aparine; conditions: for Galium plant response rating: preemergence, scale 0 (no effect) to 100 (complete control)
How it was run: as §1

corn = test: Test C preemergence; type: in vivo, Zea mays; conditions: for Corn plant response rating: preemergence, scale 0 (no effect) to 100 (complete control)
How it was run: as §1

morningglory [2] = test: Test C preemergence; type: in vivo, Ipomoea coccinea; conditions: for Morningglory plant response rating: preemergence, scale 0 (no effect) to 100 (complete control)
How it was run: as §1

blackgrass = test: Test C postemergence; type: in vivo, Alopecurus myosuroides; conditions: for Plant response rating (0 to 100), Blackgrass: postemergence; for Plant response rating, Blackgrass: Postemergence, scale 0 to 100 (0 no effect, 100 complete control)
How it was run: as §1

kochia = test: Test C postemergence; type: in vivo, Kochia scoparia; conditions: for Plant response rating (0 to 100), Kochia: postemergence; for Plant response rating, Kochia: Postemergence, scale 0 to 100 (0 no effect, 100 complete control)
How it was run: as §1

rice = test: Test B flooded paddy test; type: in vivo, Oryza sativa; conditions: Flood, 250 g ai/ha; 0 to 100 scale where 0 is no effect and 100 is complete control
How it was run: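 Visual ratings on a 0 to 100 scale, where 100 means complete control, compared treated plants with controls after 13 to 15 days in a greenhouse. Treatment went into paddy water 3 cm deep over the soil, applied to plants at the 2-leaf stage.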

morningglory [3] = test: Test C postemergence; type: in vivo, Ipomoea coccinea; conditions: for Plant response rating (0 to 100), Morningglory: postemergence; for Plant response rating, Morningglory: Postemergence, scale 0 to 100 (0 no effect, 100 complete control)
How it was run: as §1

yellow nutsedge [4] = test: Test C postemergence; type: in vivo, Cyperus esculentus; conditions: for Plant response rating (0 to 100), Nutsedge, Yellow: postemergence; for Plant response rating, Nutsedge, Yellow: Postemergence, scale 0 to 100 (0 no effect, 100 complete control)
How it was run: as §1

oilseed rape = test: Test C preemergence; type: in vivo, Brassica napus; conditions: for Oilseed Rape plant response rating: preemergence, scale 0 (no effect) to 100 (complete control)
How it was run: as §1

velvetleaf = test: Test A postemergence; type: in vivo, Abutilon theophrasti; conditions: 0 to 100 scale where 0 is no effect and 100 is complete control
How it was run: (§2)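 Injury scores run from 0, no effect, to 100, complete control, judged by eye against untreated plants roughly 10 days after treatment. Chemicals carried a surfactant in a non-phytotoxic solvent and went onto loam–sand soil preemergence or onto one- to two-leaf seedlings postemergence.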

barnyardgrass = test: Test A preemergence; type: in vivo, Echinochloa crus-galli
How it was run: as §2

[5] = Preemergence, 31 g ai/ha, scale 0 to 100, 0 no effect, 100 complete control

## N#Cc1cccc(Oc2ncc(F)cn2)c1-n1cc(Cl)cn1 [Compound 73]
Wild oat; 125 g ai/ha
  Plant response rating (0 to 100), Oat, Wild: 10
Wild oat; 250 g ai/ha
  Plant response rating (0 to 100), Oat, Wild: 15
Wild oat; 31 g ai/ha, 13 to 15 days
  Plant response rating, Oat, Wild: 5
Wild oat; 62 g ai/ha
  Plant response rating, Oat, Wild: 5
Yellow nutsedge [1]; 62 g ai/ha
  Nutsedge, Yellow plant response rating: 0
Yellow nutsedge [1]; 125 g ai/ha
  Nutsedge, Yellow plant response rating: 5
Yellow nutsedge [1]; 250 g ai/ha
  Nutsedge, Yellow plant response rating: 15
Yellow nutsedge [1]; [5]
  Plant response rating, Nutsedge, Yellow: 0
galium; 62 g ai/ha
  Galium plant response rating: 90
galium; 125 g ai/ha
  Galium plant response rating: 90
galium; 250 g ai/ha
  Galium plant response rating: 95
galium; [5]
  Plant response rating, Galium: 85
corn; 62 g ai/ha
  Corn plant response rating: 0
corn; 125 g ai/ha
  Corn plant response rating: 5
corn; 250 g ai/ha
  Corn plant response rating: 70
corn; [5]
  Plant response rating, Corn: 0
Morningglory [2]; 62 g ai/ha
  Morningglory plant response rating: 45
Morningglory [2]; 125 g ai/ha
  Morningglory plant response rating: 95
Morningglory [2]; 250 g ai/ha
  Morningglory plant response rating: 98
Morningglory [2]; [5]
  Plant response rating, Morningglory: 45
blackgrass; 125 g ai/ha
  Plant response rating (0 to 100), Blackgrass: 5
blackgrass; 250 g ai/ha
  Plant response rating (0 to 100), Blackgrass: 25
blackgrass; 31 g ai/ha, 13 to 15 days
  Plant response rating, Blackgrass: 0
blackgrass; 62 g ai/ha
  Plant response rating, Blackgrass: 0
kochia; 125 g ai/ha
  Plant response rating (0 to 100), Kochia: 90
kochia; 250 g ai/ha
  Plant response rating (0 to 100), Kochia: 90
kochia; 31 g ai/ha, 13 to 15 days
  Plant response rating, Kochia: 80
kochia; 62 g ai/ha
  Plant response rating, Kochia: 85
rice
  Plant response rating, Rice: 0
Morningglory [3]; 125 g ai/ha
  Plant response rating (0 to 100), Morningglory: 85
Morningglory [3]; 250 g ai/ha
  Plant response rating (0 to 100), Morningglory: 85
Morningglory [3]; 31 g ai/ha, 13 to 15 days
  Plant response rating, Morningglory: 65
Morningglory [3]; 62 g ai/ha
  Plant response rating, Morningglory: 65
Yellow nutsedge [4]; 125 g ai/ha
  Plant response rating (0 to 100), Nutsedge, Yellow: 5
Yellow nutsedge [4]; 250 g ai/ha
  Plant response rating (0 to 100), Nutsedge, Yellow: 5
Yellow nutsedge [4]; 31 g ai/ha, 13 to 15 days
  Plant response rating, Nutsedge, Yellow: 0
Yellow nutsedge [4]; 62 g ai/ha
  Plant response rating, Nutsedge, Yellow: 0
Oilseed rape; 62 g ai/ha
  Oilseed Rape plant response rating: 95
Oilseed rape; 125 g ai/ha
  Oilseed Rape plant response rating: 100
Oilseed rape; 250 g ai/ha
  Oilseed Rape plant response rating: 100
Oilseed rape; [5]
  Plant response rating, Oilseed Rape: 85
velvetleaf; 125 g ai/ha
  Plant response rating, Velvetleaf: 100
velvetleaf; 500 g ai/ha
  Plant response rating, Velvetleaf: 100
barnyardgrass; 125 g ai/ha, 0 to 100 scale where 0 is no effect and 100 is complete control
  Plant response rating, Barnyardgrass: 90
barnyardgrass; 500 g ai/ha, 0 to 100 scale, 0 no effect, 100 complete control, approx. 10 days
  Barnyardgrass plant response rating: 100

— patent US9695155B2, “Herbicidal substituted pyrimidinyloxy benzene compounds” (E. I. DU PONT DE NEMOURS AND COMPANY, priority 2013, dated 2017)
